# Several values for one entry are separate records, joined by “and”; a condition that tells them apart may be missing. Equal values may be shown once.
# What was measured:
# cobaye = test: Local anaesthetic effect, intradermal injection, pin-prick test; format: in vivo; details: guinea pig, intradermal 0,2 ml, concentrations 0,5 and 1%
# Protocol: L'effet anesthésique a été étudié chez le cobaye après injection du CRL 40827 par voie intradermique sous un volume de 0,2 ml aux concentrations de 0,1, 0,5 et 1% (3 cobayes par dose). Chaque animal reçoit le sérum physiologique, la procaine et le CRL 40827 dans des zones délimitées.
# Le test qui consiste en une série de six piqûres de la zone injectée est réalisé 5, 10, 15, 20, 25 et 30 min après l'injection.
# [1] = tested on: rat éveillé génétiquement hypertendu; test: Cardiovascular action, awake genetically hypertensive rat; format: in vivo
# souris [2] = test: Interaction with reserpine (hypothermia, ptosis); format: in vivo; details: mouse
# Protocol: Quatre heures après l'injection intrapéritonéale de 2,5 mg/kg de réserpine, des lots de 6 souris reçoivent le CRL 40827.
# (§1) En procédant selon les modalités opératoires données ci-dessus pour le CRL 40827, on observe ce qui suit.
# [3] = tested on: chien anesthésié au Nembutal; test: Biliary secretion, dog anaesthetised with Nembutal; format: in vivo; details: normal 1,5 ml
# Protocol: (§2) Chez le chien anesthésié au Nembutal, le débit biliaire normal recueilli en 30 min est de 1,5 ml; le débit biliaire augmente après injection intraduodénale de CRL 40827 et passe à 1,75 ml pour 2,5 mg/kg de CRL 40827, à 2,25 ml pour 5 mg/kg et à 2,5 ml pour 10 mg/kg. Chez le rat anesthésié au Nembutal, le débit biliaire augmente 1 à 3 h après injection I.V. de CRL 40827 aux doses de 5 mg/kg et 25 mg/kg.
# souris [4] = test: Toxicity: maximal non-lethal dose DL-0, intraperitoneal; format: in vivo; details: mouse, i.p.
# Protocol: La dose maximale non mortelle, DL-0, est supérieure à 128 mg/kg et inférieure à 256 mg/kg, chez la souris, par voie I.P. 2°) - Action sur le SNC
# (§3) Le CRL 40827, en solution dans de l'eau distillée, a été administré par voie intrapéritonéale sous un volume de 20 ml/kg chez la souris mâle et un volume de 5 ml/kg chez le rat mâle. 1°) - Toxicité
# La dose maximale non mortelle, DL-0, est supérieure à 64 mg/kg et inférieure à 128 mg/kg chez la souris mâle.
# Le CRL 40854, en solution dans de l'eau distillée, a été administré par voie intrapéritonéale sous un volume de 20 ml/kg chez la souris màle et de 5 ml/kg chez le rat màle.
# La dose maximale non mortelle DL-0 est supérieure à 128 mg/kg et inférieure à 256 mg/kg chez la souris.
# rats = test: Interaction with amphetamine (stereotypies); format: in vivo, rat; details: rat
# Protocol: L'amphétamine (2 mg/kg) est injectée par voie intrapéritonéale à des lots de 6 rats, 30 min après l'administration de CRL 40827. […] Interaction avec la réserpine
# as §1
# chien anesthésié = test: Cardiovascular and respiratory action, anaesthetised dog; format: in vivo
# rat = test: Interaction with apomorphine, rat; format: in vivo; details: i.p. 30 min before apomorphine 0,5 mg/kg s.c.
# Protocol: as §3
# Le CRL 40 827 est administré à des lots de 6 rats 30 min avant l'injection sous-cutanée de 0,5 mg/kg d'apomorphine.
# as §1
# souris [5] = test: Spontaneous motility (actimeter); format: in vivo; details: mouse, recorded 30 min, 30 min after dosing
# Protocol: Une demi-heure après avoir reçu le CRL 40827, les souris (6 par dose, 12 témoins) sont placées en actimètre où leur motilité est enregistrée pendant 30 min.
# as §1
# homme = test: Clinical use as sedative and antidepressant agents; format: in vivo; details: clinic
# souris [6] = test: Motility reduced by habituation to the enclosure; format: in vivo; details: mouse; high dose 34 mg/kg
# Protocol: Après 18 h de séjour dans les actimètres, les souris (6 par dose, 12 témoins) reçoivent le CRL 40827. Elles sont aussitôt replacées dans leurs enceintes respectives et, 30 min plus tard, on enregistre leur motilité pendant 30 min.
# as §1
# souris [7] = test: Asphyxic anoxia (gallamine triethiodide); format: in vivo; details: mouse; highest dose 34 mg/kg, 30 min before gallamine triethiodide i.p.
# Protocol: Des lots de 10 souris reçoivent le CRL 40827 30 min avant l'administration intrapéritonéale d: 34 mg/kg de triiodoéthy- late de gallamine. A la plus forte dose (34 mg/kg),le CRL 40827 empêche l'apparition des convulsions et de la mort chez 40% des animaux.
# as §1
# souris [8] = test: Four-plate test, traction and electroshock; format: in vivo; details: mouse, 30 min after dosing
# Protocol: Le test est pratiqué sur des lots de 10 souris, 30 min après l'administration de CRL 40827.
# as §1
# [9] = tested on: rat anesthésié au Nembutal; test: Biliary secretion, rat anaesthetised with Nembutal; format: in vivo; details: 1 to 3 h after I.V. injection of 5 mg/kg and 25 mg/kg
# Protocol: as §2
# souris mâles = test: Intergroup aggressiveness test (number of fights after removal of the partition); format: in vivo; details: mouse; dose not given
# Description: Des essais comparatifs ont été entrepris pour mettre en évidence quels sont les effets chez l'animal qui permettent de distinguer les produits selon l'invention de leurs homologues fluorés connus. Parmi ces essais, on a résumé ceux concernant les propriétés antiagressives. Plus précisément, on a évalué la diminution de l'agressivité intergroupes selon la technique suivante : a.près avoir séjourné pendant 3 semaines de part et d'autre d'une cloison opaque séparant leur cage par le milieu, des groupes de trois souris mâles de 20 g chacune environ reçoivent, par voie intrapéritonéale, les produits à tester en solution dans de l'eau distillée, les animaux témoins ne recevant que de l'eau distillée par voie intrapéritonéale. Une demi-heure plus tard, les deux groupes d'une même cage sont réunis par retrait de la cloison opaque et on note le nombre de combats qui surviennent en 10 min. On a utilisé trois cages pour chaque produit à tester et six cages pour le lot témoin ne recevant pas les produits à tester.
# Les résultats du tableau I ci-après donnent la diminution de l'agressivité intergroupes par rapport au lot témoin, tous les produits à tester étant administrés à la dose de 8 mg/kg par voie intrapéritonéale. […]
# souris [10] = test: Interaction with oxotremorine; format: in vivo; details: mouse
# Protocol: Le CRL 40827 est administré à des lots de 6 souris 30 min avant l'injection intrapéritonéale de 0,5 mg/kg d'oxotrémo- rine. On observe que, dès la dose de 0,5 mg/kg, le CRL 40827 antagonise l'action hypothermisante de l'oxotrémorine; cet effet est très net à 32 mg/kg.
# as §1
# souris [11] = test: Motility reduced by hypoxic aggression (acute hypobaric anoxia); format: in vivo; details: mouse
# Protocol: Une demi-heure après avoir reçu le CRL 40827, les souris (10 par dose, 20 témoins) sont soumises à une anoxie hypobare aiguë (dépression de 8 x 10^4 Pa en 90 s, détente de 45 s), puis elles sont placées en actimètre où leur motilité est enregistrée pendant 10 min.
# as §1
smiles,measurement,setting,value
"CC(C)(C)NCC(O)c1ccccc1F (stereo not drawn) [CRL 40827, chlorhydratede 1-(2-fluorophényl)-2-tertiobutylamino-1-éthanol]",effet anesthésique local,cobaye,présente un effet anesthésique local
same,pression artérielle et fréquence cardiaque,[1],hypotenseur et tachycardisant
same,ptôsis réserpinique,souris [2],sans modifier
same,hypothermie réserpinique,"souris [2]; from 0,5 mg/kg, 4 h after reserpine 2,5 mg/kg i.p.",combat nettement
same,débit biliaire recueilli en 30 min,"[3]; dog, 5 mg/kg intraduodenal","2,25 ml"
same,débit biliaire recueilli en 30 min,"[3]; dog, 10 mg/kg intraduodenal","2,5 ml"
same,débit biliaire recueilli en 30 min,"[3]; dog, 2,5 mg/kg intraduodenal","1,75 ml"
same,"dose maximale non mortelle, DL-0",souris [4],> 64 mg/kg and < 128 mg/kg
same,index de stéréotypies (amphétamine),rats; 4 mg/kg,diminution isolée
same,stéréotypies amphétaminiques,rats; amphetamine 2 mg/kg i.p. 30 min after the compound,ne modifie pas
same,minimal effective dose,"chien anesthésié; Canis lupus familiaris, dog, read-out: dose from which the effets hypertenseurs de la noradrénaline are diminished",1 mg/kg
same,pression artérielle et fréquence cardiaque,chien anesthésié; anaesthetised dog,hypotenseur et tachycardisant
same,dose of maximal effect on the effets hypertenseurs de la noradrénaline,chien anesthésié; dog,~10 mg/kg
same,débit cardiaque,chien anesthésié; in vivo,reste égal
same,débits sanguins locaux,chien anesthésié; in vivo,n'augmentent pas
same,respiration,chien anesthésié; in vivo,stimule la respiration
same,"résistances vasculaires des territoires explorés (vertébral, fémoral et rénal) et résistance périphérique totale",chien anesthésié; in vivo,diminue
same,travail du ventricule gauche et diastole,chien anesthésié; in vivo,diminue le travail du ventricule gauche et raccourcit la diastole
same,stéréotypies induites par l'apomorphine,rat,laisse inchangées
same,activité motrice spontanée,souris [5],ne modifie pratiquement pas
same,résultats cliniques dans le domaine psychotrope en tant qu'agents sédatifs et antidépresseurs,homme,bons résultats
same,activité motrice (souris habituées à l'enceinte),souris [6],semble provoquer une reprise modérée
same,animaux chez lesquels l'apparition des convulsions et de la mort est empêchée,souris [7],40%
same,effets convulsivants de l'électrochoc,souris [8],"à forte dose, s'oppose aux effets convulsivants"
same,incapacité motrice (traction),souris [8],ne provoque pas d'incapacité motrice majeure
same,nombre de passages punis (test des quatre plaques),souris [8],n'entraîne pas d'augmentation
same,débit biliaire,[9],augmente
same,agressivité intergroupes / effet antiagressif,souris mâles,diminue l'agressivité intergroupes
same,signes de stimulation cholinergique périphérique (oxotrémorine),souris [10],laisse inchangés
same,tremblements provoqués par l'oxotrémorine,souris [10],ne modifie pas
same,action hypothermisante de l'oxotrémorine (antagonisme),souris [10]; 32 mg/kg,très net
same,action hypothermisante de l'oxotrémorine,"souris [10]; from 0,5 mg/kg, 30 min before oxotremorine 0,5 mg/kg i.p.",antagonise
same,récupération motrice après anoxie hypobare,souris [11],n'entraîne pas d'amélioration

# Reference: patent publication EP0060954A1, “Derivatives of fluorophenacyl amines and their therapeutic use” (LABORATOIRE L. LAFON Société anonyme dite:, priority 1981, dated 1982)
